Experiments:
[1] = system: NF-κB target genes (786-O cells); test: RT-qPCR of NF-κB target genes after NF-κB inhibitor, 786-O; type: cell-based, human; conditions: 0.006 μM bortezomib or 0.6 µM Bay 11-7085, 24 hours
Description: (§1) Colony formation of parental (WT) or PBRM1 knockout (KO) 786-O cells expressing shRNA against non-targeting control (NC), RELA, or NFKB1 cultured with a) 10% or b) 2% serum. c) Gene expression changes of NF-κB target genes in 786-O cells treated with 0.006 μM bortezomib (BTZ) or 0.6 µM Bay 11-7085 for 24 hours (n=3 technical replicates). * p-value<0.05 (two-sided t-test). […] A positive log fold change refers to gain in bortezomib treatment over DMSO. g) Colony formation of 786-O isogenic cells and h) NCC432 isogenic cells treated with bortezomib for a week. Tumor formation of isogenic 786-O cells (i) and NCC432 cells (j) treated with PBS control or 0.5 mg/kg bortezomib (BTZ) in NSG mice. (n=10 tumors per group for 786-O, and n=16 tumors for NCC432 PBS EV group and 12 tumors for NCC432 PBS PBRM1 group and 14 tumors for both NCC432 EV and PBRM1 BTZ groups). Data are presented as mean values+/−SEM. k) Model for the study.

[2] = system: NF-κB pathway (786-O cells); test: RNA-seq after bortezomib, 786-O; type: cell-based, human
Description: as §1
In 6 wells, 1,000 786-O cells or 2,500 NCC432 cells were seeded and treated with DMSO control or increasing concentration of drugs for 7 days and stained with crystal violet. For drug screening, we used SGC epigenetic probe collection. For RNA-seq with bortezomib treatment, 2×10^5 786-O cells were treated with DMSO or 0.005 μM bortezomib and harvested 9 hours after treatment for RNA extraction. For RT-qPCR with SMARCA2/4 ATPase inhibitor treatment, 1×10^5 786-O cells were treated with DMSO or 0.01 μM SMARCA2/4 ATPase inhibitor (Targetmol, T10616, CAS: 2270879-17-7) for 3 days before RNA extraction.
Total RNA was extracted using the Qiagen RNeasy Mini kit. RNA-seq libraries were prepared using Illumina Tru-Seq Stranded Total RNA kit protocol, according to the manufacturer's instructions (Illumina, San Diego, California, USA). […] Sequencing was performed on an Illumina HiSeq4000 sequencer with the paired-end 150 bp read option.
RNA-Seq Pathway Analysis RNA-seq data were mapped to hg19 (h117d5) using STAR, with GENCODE annotation (gencode.v19.annotation.gtf) and recommended settings from STAR manual. Gene expression levels were quantified with STAR. […]

[3] = system: IκBα / NF-κB; conditions: mechanism; cited from earlier work
[4] = system: SMARCA4 and RELA interaction; test: Co-immunoprecipitation of RELA with SMARCA4 after bortezomib; type: cell-based, human; conditions: bortezomib treatment
From the text: Data are presented as median+/−25%. Lower whisker is smallest observation greater than or equal to 25% quantile-1.5*interquantile range (IQR). Upper whisker represents the largest observation less than or equal to 75%+1.5*IQR. Amount of normalized RELA protein in the c) input or d) co-immunoprecipitated with SMARCA4 from 3 independent runs. […]

[5] = system: 786-O tumors; test: Tumor formation and survival of NSG mice bearing 786-O isogenic cells; type: in vivo; conditions: for median survival: 0.5 mg/kg bortezomib arm n=10; for HR: bortezomib vs PBS, p=3E-6, log rank test
Description: as §1
Data are presented as median+/−25%. Lower whisker is smallest observation greater than or equal to 25% quantile-1.5*interquantile range (IQR). Upper whisker represents the largest observation less than or equal to 75%+1.5*IQR. Amount of normalized RELA protein in the c) input or d) co-immunoprecipitated with SMARCA4 from 3 independent runs. Data are presented as mean values+/−SD. e) Tornado plots of RELA and SMARCA4 ChIP-seq signals in parental 786-0 or PBRM1-KO 786-O cells treated with DMSO or 0.005 μM bortezomib for 9 hours. f) Kaplan-Meier curves of NSG mice bearing 786-O isogenic cells treated with PBRM1 control or 0.5 mg/kg bortezomib (WT: n=10 PBS arm, median survival=39 days; n=10 bortezomib arm, median survival=52 days, HR=4.1, p=3E-6, log rank test; KO: n=10 PBS arm, median survival=35 days, n=10 bortezomib arm, median survival=66 days, HR=4.1, p=3E-6, log rank test). g) Kaplan-Meier curves of NSG mice bearing NCC432 isogenic cells treated with PBRM1 control or 0.5 mg/kg bortezomib (EV: n=16 PBS arm, median survival=42 days; n=14 bortezomib arm, median survival=49 days, HR=2.5, p=0.0009, log rank test; PBRM1: n=12 PBS arm, median survival=55 days; n=14 bortezomib arm, median survival=58 days, HR=1.2, p=0.5, log rank test). h) 786-O PBRM1 WT or KO cells were screened against the high-specific SGC epigenetic probe collection and cell viability was measured by colony formation after 1 week of treatment relative to DMSO control.
All animal studies were conducted in compliance with animal protocols approved by Institutional Animal Care and Use Committee (IACUC) of Singapore. Female NOD/SCID mice (8-10 week old) were implanted subcutaneously with 1×10^6 786-0 cells with either wildtype PBRM1 or PBRM1 knocked out subcutaneously. Male NSG mice (The Jackson laboratory) were implanted with 1×10^6 A498, NCC2112 or NCC432 with or without PBRM1. Tumor volume was monitored every 3-4 days. Tumor volume was calculated as (length×width×width)×π/6. Animals were sacrificed when the tumor volume exceeded 2000 mm^3.
Bortezomib […] was given twice weekly (day1, day 4) to male NSG mice (The Jackson laboratory) via the tail vein. Tumor volume and body weight were monitored every 3-4 days.

[6] = system: NCC432 cells; test: Colony formation, NCC432 isogenic cells; type: cell-based, human; conditions: NCC432, a week
Description: as §1
In 6 wells, 1,000 786-O cells or 2,500 NCC432 cells were seeded and treated with DMSO control or increasing concentration of drugs for 7 days and stained with crystal violet. For drug screening, we used SGC epigenetic probe collection. For RNA-seq with bortezomib treatment, 2×10^5 786-O cells were treated with DMSO or 0.005 μM bortezomib and harvested 9 hours after treatment for RNA extraction. […]

CC(C)C[C@H](NC(=O)[C@H](Cc1ccccc1)NC(=O)c1cnccn1)B(O)O [bortezomib]
suppressing the expression of NF-κB target genes [1]: effective at suppressing the expression of NF-κB target genes
effect on NF-κB pathway by global transcriptomics ([2]; 0.005 μM bortezomib, 9 hours, RNA-seq): downregulation of the NF-κB pathway
effect on NF-κB activation (summary) ([2]; Example 2 summary): reverses NF-κB activation
additional targets upregulated by PB1 loss that were suppressed ([2]; in addition to RELA targets, 786-O): 127 targets
effect on IκBα and NF-κB DNA binding [3]: induces nuclear translocation and accumulation of IκBα which then associates with nuclear NF-κB and inhibits its DNA binding activity
effect on interaction between SMARCA4 and RELA [4]: did not significantly affect
survival, mice bearing PB1-deficient vs PB1-proficient cells ([5]; 0.5 mg/kg bortezomib): survived for a longer duration
tumor response, PB1-deficient vs PB1-proficient isogenic cells ([5]; 0.5 mg/kg bortezomib, NSG mice): responded better
median survival ([5]; 786-O KO, PBS arm 35 days): 66 days
HR ([5]; 786-O KO): 4.1
median survival ([5]; 786-O WT, PBS arm 39 days): 52 days
HR ([5]; 786-O WT): 4.1
selectivity for PB1-deficient tumors (summary) ([5]; 786-O and NCC432, Example 2 summary): selectively targets PB1-deficient tumors
reduction of colony formation, PB1-deficient vs PB1-proficient isogenic cells [6]: preferential reduction of colony formation
